Data from patent publication US20220218670A1, “METHODS OF TREATING DISEASES CHARACTERISED BY VASOCONSTRICTION” (Gesynta Pharma AB, priority 2016, published 2022).

Columns and labels:
Format in all cases: in vivo
ADMA = test: Circulating ADMA in plasma by immunoassay after COX-2 inhibition in mice; conditions: wild-type mice; parecoxib 100 mg/kg in drinking water for 5 days; FIG. 1
Description: Experiments were performed on male and female mPGES-1^−/− and their wild-type mPGES-1^+/+ littermate mice at 6-8 weeks of age. […] All mice were housed with a 12 h light/dark cycle in a climate-controlled environment, and were fed with standard rodent chow with water ad libitum. All mice experiments were conducted in line with EU directive 2010/63/EU and according to guidelines from the Swedish Veterinary board the Guide for the Care and Use of Laboratory Animals published by the US National Institutes of Health (NIH Publication No. 85-23, revised 1996). Studies were sanctioned by the Karolinska Institute ethics committee (dnr. N86_13 and N364_11), the Shantou University Institutional Animal Research and Use Committee and/or the Imperial College London Ethical Review Panel (PPL 70/7013 and 70/8422). Where indicated, wild-type (mPGES-1^+/+) mice were treated with the selective COX-2 inhibitor, parecoxib (100 mg/kg; Pfizer, USA) added to their drinking water for 5 days prior to tissue collection as we have done before (see Ahmetaj-Shala, B. et al., Circulation, 131, 633-642 (2015)).
Plasma was separated by centrifugation for the following circulating mediators measured by immunoassay: ADMA (DLD Diagnostika, Germany), PGE2 (Cisbio Bioassays, France).

Prmt1 = test: Gene expression in renal medulla (TaqMan), gene for synthesis of ADMA; conditions: wild-type mice, parecoxib 100 mg/kg in drinking water for 5 days, FIG. 2
Description: (§1) Experiments were performed on male and female mPGES-1^−/− and their wild-type mPGES-1^+/+ littermate mice at 6-8 weeks of age. […] All mice were housed with a 12 h light/dark cycle in a climate-controlled environment, and were fed with standard rodent chow with water ad libitum. All mice experiments were conducted in line with EU directive 2010/63/EU and according to guidelines from the Swedish Veterinary board the Guide for the Care and Use of Laboratory Animals published by the US National Institutes of Health (NIH Publication No. 85-23, revised 1996). […]
(§2) RNA was isolated from renal medulla homogenates using a magnetic silica-bead isolation kit (Life Technologies, UK) and converted to cDNA using reverse transcriptase (Thermo Fisher Scientific, UK) with oligo(dT) primers (Life Technologies, UK). Gene expression levels were determined using TaqMan hydrolysis probes (Life Technologies, UK) recognising Prmt1 (probe ID: Mm00480133_m1 or Agxt2 (probe ID: Mm01304088_m1). Data were normalised to expression of the housekeeping genes 18S (probe ID: Mm03928990_g1) and Gapdh (probe ID: Mm99999915_g1) and relative expression compared using the comparative Ct method.

Agxt2 = test: Gene expression in renal medulla (TaqMan), gene for degradation of ADMA; conditions: wild-type mice, parecoxib 100 mg/kg in drinking water for 5 days, FIG. 3
Description: as §1, §2

CCC(=O)NS(=O)(=O)c1ccc(-c2c(-c3ccccc3)noc2C)cc1 [parecoxib]
plasma levels of ADMA (ADMA): increased levels of ADMA | expression of genes responsible for synthesis of ADMA (Prmt1) (Prmt1): increased expression of genes responsible for synthesis of ADMA (Prmt1) | expression of genes responsible for degradation of ADMA (Agxt2) (Agxt2): increased expression of genes responsible for degradation of ADMA (Agxt2)
